Reference: PMC12040169 (PLOS Biology, 2025)

Assay: in vitro
Conditions: human, hela cells, % viability

| SMILES | viability at 28.5 h, 10 µM |
| --- | --- |
| O=C(c1ccc2ncccc2c1)N1CCC(c2ccncc2)CC1 [CBK283684] | 90.3% |
| c1csc(CNc2c(-c3cccs3)nc3cnccn23)c1 [CBK283685] | 92.7% |
| O=C(Cc1ccc(F)cc1)N1CCn2c(nnc2C2CC2)C1 [CBK283688] | 113% |
| O=C(CCCc1c[nH]c2ccccc12)N1CCn2c(nnc2C2CC2)C1 [CBK283689] | 96.6% |
| Cc1ccnn1CCC(=O)NC1(c2ccccc2F)CCCC1 [CBK283691] | 81.7% |
| CC1CCN(C(=O)Cn2c(=O)n(C(C)C)c3ncccc32)CC1 [CBK283698] | 89.5% |
| CC(C)n1c(=O)n(CC(=O)NCCc2ccccc2)c2cccnc21 [CBK283701] | 94.8% |
| O=C(c1cc2c(s1)CCC2)N1CCc2c(nc[nH]c2=O)C1 [CBK283703] | 101% |
| O=C(Cc1ccccc1F)NCCn1nc(-c2ccco2)ccc1=O [CBK283705] | 96.9% |
| O=C(Cc1ccc(F)cc1)NCCn1nc(-c2ccco2)ccc1=O [CBK283706] | 86.4% |
| O=C(Cc1cccc(F)c1)NCCn1nc(-c2ccco2)ccc1=O [CBK283708] | 86.3% |
| O=C(CN1Cc2ccccc2C1)N1CCCC1c1nc2ccccc2[nH]1 (stereo not drawn) [CBK283710] | 87.9% |
| O=C(CCc1ccco1)N1CCCCC1c1nc2ccccc2[nH]1 (stereo not drawn) [CBK283711] | 99.9% |
| CN(C)c1cccc(C(=O)N2CC[C@@H](c3ccccc3)[C@H](O)C2)c1 [CBK283713] | 91.6% |
| Cc1ccc2c(c1)C(=O)CC1(CCN(C(=O)C3CCCC3)CC1)O2 [CBK283718] | 85% |
| COC(=O)[C@H]1CN(C(=O)c2cn(C)nc2C)C[C@@H]1c1ccc(F)cc1 [CBK283720] | 96.6% |
| O=C(Cn1c2ccccc2c2ccccc21)N1CCn2cnnc2C1 [CBK283724] | 88.2% |
| COC(=O)[C@@H]1CN(C(=O)c2cccs2)C[C@H]1c1ccc(OC)cc1 [CBK283725] | 87.1% |
| O=c1oc(-c2ccoc2)nn1Cc1ccccc1F [CBK283726] | 98.5% |
| COC(=O)[C@H]1CN(C(=O)c2ccccn2)C[C@@H]1c1ccc(F)cc1 [CBK283727] | 101% |
| Cc1nn2c(O)c3c(nc2c1-c1cccs1)CCC3 [CBK283729] | 85.7% |
| COc1ccc(C2(NC(=O)c3cnn(C)c3C)CCCCC2)cc1 [CBK283731] | 84.8% |
| COC(=O)[C@H]1CN(C(=O)c2ccco2)C[C@@H]1c1ccc(F)cc1 [CBK283733] | 85.8% |
| O=C(O)[C@H]1CN(C(=O)c2cccs2)C[C@@H]1c1ccc(F)cc1 [CBK283734] | 98.1% |

| SMILES | viability at 28.5 h, 10 µM |
| --- | --- |
| O=C(O)[C@H]1CN(C(=O)c2ccco2)C[C@@H]1c1ccc(F)cc1 [CBK283735] | 105% |
| CCn1c(C(CC(C)C)NC(=O)C2CC2)nc2cccnc21 (stereo not drawn) [CBK283736] | 103% |
| O=C(c1ccc(=O)[nH]n1)N1C2CCC1CC(c1ccc(F)cc1)C2 (stereo not drawn) [CBK283737] | 94.4% |
| Cc1noc(C)c1C(=O)N1C2CCC1CC(c1ccc(F)cc1)C2 (stereo not drawn) [CBK283738] | 102% |
| Cc1nonc1CC(=O)N1C2CCC1CC(c1ccc(F)cc1)C2 (stereo not drawn) [CBK283739] | 89.1% |
| O=C(Cc1ccsc1)N1CCCC1c1nc2ccccc2[nH]1 (stereo not drawn) [CBK283740] | 87.7% |
| Cc1oc(C2CC2)cc1C(=O)N1CCCC1c1nc2ccccc2[nH]1 (stereo not drawn) [CBK283741] | 88.1% |
| O=C(NCCn1nc(-c2ccco2)ccc1=O)C1CCCCC1 [CBK283743] | 105% |
| CCn1c(/C=C/C2=CCN(C)CC2)nc2ccccc21 [CBK283745] | 91.8% |
| CN(C)C(=O)Cn1nc(C(c2ccccc2)c2ccccc2)oc1=O [CBK283747] | 92.6% |
| CCc1nn(CC(=O)N2CCCC2)c(=O)c2cc3occc3n12 [CBK283748] | 93.3% |
| CCn1cc(C(=O)NC2(c3cccc(OC)c3)CCCC2)cn1 [CBK283750] | 101% |
| COc1ccc([C@@H]2CCN(C(=O)Cc3ccccc3F)C[C@H]2O)cc1 [CBK283756] | 100% |
| CN(C)C(=O)Cn1nc(-c2cccc(-n3cccc3)c2)oc1=O [CBK283759] | 103% |
| CCOC(=O)c1[nH]c(C)c(/C=C/C2=CCN(C)CC2)c1C [CBK283761] | 99.3% |
| O=C(c1cccnc1)N1C2CCC1CC(c1ccc(F)cc1)C2 (stereo not drawn) [CBK283762] | 98.3% |
| O=C(c1ccncc1)N1C2CCC1CC(c1ccc(F)cc1)C2 (stereo not drawn) [CBK283763] | 94.3% |
| COc1ccc2cc(C)c3n[nH]c(=O)n3c2c1 [CBK283765] | 89% |
| COc1ccc2c(c1)cc(C)c1n[nH]c(=O)n12 [CBK283766] | 76.7% |
| CCC(C(=O)N1CCC(O)(c2ccccn2)CC1)c1ccccc1 (stereo not drawn) [CBK283768] | 93.1% |
| CN1CC(C(=O)N2C3CCC2CC(c2ccc(F)cc2)C3)CC1=O (stereo not drawn) [CBK283769] | 96.3% |
| O=C(c1cc2c(s1)CCC2)N1CCn2c(nnc2C2CC2)C1 [CBK283770] | 96.6% |
| O=c1oc(-c2cccnc2)nn1Cc1ccccc1F [CBK283774] | 87.1% |
| COC(=O)[C@H]1CN(C(=O)c2cccs2)C[C@@H]1c1ccccc1F [CBK283775] | 87.4% |

| SMILES | viability at 28.5 h, 10 µM |
| --- | --- |
| CCn1cc(C(=O)N2CCCC2c2nc3ccccc3[nH]2)c(C)n1 (stereo not drawn) [CBK283777] | 90.2% |
| CCn1cc(C(=O)N2CCCCC2c2nc3ccccc3[nH]2)c(C)n1 (stereo not drawn) [CBK283778] | 91.5% |
| Cc1nn(C)cc1C(=O)N1CCCCC1c1nc2ccccc2[nH]1 (stereo not drawn) [CBK283779] | 84.7% |
| Fc1cccc(-c2nc3cnccn3c2NC2CCCC2)c1 [CBK283780] | 81.4% |
| Cn1ccnc1C(NC(=O)N1CCCC1)c1ccc(F)c(F)c1 (stereo not drawn) [CBK283782] | 89% |
| Cn1ccnc1C(NC(=O)C1CCCC1)c1ccc(F)c(F)c1 (stereo not drawn) [CBK283784] | 97% |
| COC(=O)[C@H]1CN(C(=O)c2cscn2)C[C@@H]1c1ccc(F)cc1 [CBK283785] | 92.3% |
| Cn1c(=O)n(CC(=O)N2CCCc3ccccc32)c2cccnc21 [CBK283790] | 86.7% |
| CN(C(=O)Cn1c(=O)n(C)c2ncccc21)C1CCCCC1 [CBK283791] | 81.5% |
| CC1CC(C)CN(C(=O)Cn2c(=O)n(C)c3ncccc32)C1 (stereo not drawn) [CBK283794] | 93.8% |
| Cn1c(=O)n(CC(=O)NC23CC4CC(CC(C4)C2)C3)c2cccnc21 [CBK283795] | 81.7% |
| CCn1nc2c(C)cc3ccc(OC)cc3n2c1=O [CBK283796] | 78.3% |
| O=C(c1cccc2ncccc12)N1CCC(c2ccncc2)CC1 [CBK283798] | 84.2% |
| O=C(Cn1nc(-c2cc3c(s2)CCC3)oc1=O)NC1CC1 [CBK283800] | 101% |
| O=C(NC1CC2(CCCC2)Oc2ccccc21)C1CCOC1 (stereo not drawn) [CBK283802] | 84.3% |
| CN1CCC2(CC1)CC(NC(=O)c1ccco1)c1ccccc1O2 (stereo not drawn) [CBK283804] | 96.6% |
| COc1ccccc1CC(=O)N1CCn2cc(C(F)(F)F)nc2C1 [CBK283806] | 84.5% |
| CCn1c(=O)n(CC(=O)NC2CCCCC2)c2cccnc21 [CBK283810] | 83.6% |
| CCn1c(=O)n(CC(=O)NCCc2ccccc2)c2cccnc21 [CBK283812] | 76.1% |
| O=C(c1cccnc1)C1CCN(C(=O)Cc2ccc(Cl)cc2)CC1 [CBK283813] | 80.4% |
| O=C(c1cccnc1)C1CCN(C(=O)Cc2ccccc2F)CC1 [CBK283814] | 87.5% |
| Cc1occc1-c1nn(CCN2CCCCC2)c(=O)o1 [CBK283815] | 96.8% |
| Cc1cccc2cc3c(nc12)OCC(=O)N(Cc1ccco1)C3 [CBK283816] | 97.6% |
| COc1ccc2c(c1)C=C(/C=C/C1=CCN(C)CC1)CO2 [CBK283818] | 81.1% |

| SMILES | viability at 28.5 h, 10 µM |
| --- | --- |
| O=C(O)[C@H]1CN(C(=O)c2cccs2)C[C@@H]1c1ccccc1F [CBK283819] | 87.1% |
| O=C(O)[C@H]1CN(C(=O)c2ccco2)C[C@@H]1c1ccccc1F [CBK283820] | 80.6% |
| Cc1cc(C)c2cc(C)c3nn(CC(=O)N(C)C)c(=O)n3c2c1 [CBK283821] | 81.8% |
| CCn1c(=O)n(CC(=O)NCc2ccccc2)c2cccnc21 [CBK283824] | 101% |
| CCn1c(=O)n(CC(=O)N2C(C)CCCC2C)c2cccnc21 (stereo not drawn) [CBK283825] | 102% |
| CC(C)CC(NC(=O)c1ccco1)c1nc2cccnc2n1C (stereo not drawn) [CBK283827] | 88.8% |
| CC(NC(=O)Cc1ccc(F)cc1)c1nc2cccnc2n1C(C)C (stereo not drawn) [CBK283830] | 88.7% |
| Cn1ccnc1C(NC(=O)N1CCCCC1)c1ccc(F)c(F)c1 (stereo not drawn) [CBK283832] | 107% |
| O=C(CC1CC2CCC1C2)N1CCC(O)(c2ccccn2)CC1 (stereo not drawn) [CBK283833] | 92.7% |
| O=C(NCCn1nc(-c2cccs2)ccc1=O)c1cccs1 [CBK283836] | 77% |
| CC(C)(C)C(=O)NCCn1nc(-c2cccs2)ccc1=O [CBK283839] | 103% |
| O=C(NCCn1nc(-c2cccs2)ccc1=O)C1CCCC1 [CBK283840] | 104% |
| CCCNC(=O)Cn1c(=O)n(Cc2cccs2)c2ncccc21 [CBK283843] | 101% |
| CC(C)(C)NC(=O)Cn1c(=O)n(Cc2cccs2)c2ncccc21 [CBK283844] | 104% |
| CC(NC(=O)c1ncoc1-c1ccc(F)cc1)c1ccccn1 (stereo not drawn) [CBK283846] | 90.9% |
| Cc1nn(Cc2ccccn2)c(=O)n2cccc12 [CBK283849] | 95.1% |
| O=C(Cn1ncc2cccn2c1=O)NCc1ccc(F)cc1 [CBK283851] | 82.8% |
| O=C(c1cccnc1)C1CCN(C(=O)c2ccccc2F)CC1 [CBK283853] | 95.1% |
| O=c1[nH]nc(-c2cccs2)n1-c1cccnc1 [CBK283854] | 101% |
| CC(C)n1c(=O)n(CC(=O)N2CCc3ccccc32)c2cccnc21 [CBK283855] | 103% |
| CCc1nn2c(O)cc(C)nc2c1-c1cccs1 [CBK283860] | 90.7% |
